Data set [1] relates to tobacco BY2 cells. The data set can be described thus: Toxicity of Neu5Ac on tobacco BY2 cells (cell viability, propidium iodide and fluorescein diacetate). It is filed as cell-based, Nicotiana tabacum. The following applies: 10 mM Neu5Ac, 48 h period.
A short description of data set [2]: Synthase activity of recombinant Neu5Ac lyase (formation of Neu5Ac from D-ManNAc and pyruvate, GC-EI MS). In kind it is biochemical. The following applies: pH 7, […]° C. The procedure: Soluble enzyme activities were assayed by incubating cell extracts with PEP 4 mM, NADH 4 mM, NaHCO3 20 mM and DTE 10 mM. Oxydation of NADH was measured by a diminution of absorbance at 340 nm after 10 min. […] Cells extracts were incubated 2 h at 37° C. in Solution B (100 mM Tris-HCl buffer, pH=7.4 and 10 mM MgCl2) containing proteinase inhibitors (pepstatine 1 μg·mL^−1, E64 1 μg·mL^1 and PMSF 1 mM) and Neu5Ac 40 mM. […] Cells extracts were incubated 2 h at 37° C. in Solution B (100 mM […], pH=7.4 and 10 mM MgCl2) containing proteinase inhibitors (pepstatine 1 μg·mL^−1, E64 1 μg·mL^1 and PMSF 1 mM) and ManNAc 20 mM and pyruvate 40 mM. Synthase activity of NeuB2 was assayed by measuring the formation of Neu5Ac after incubating transformants cells extracts with ManNAc and PEP. Cells extracts were incubated 2 h at 37° C. in Solution B (100 mM Tris-HCl buffer, pH=7.4 and 10 mM MgCl2) containing proteinase inhibitors (pepstatine 1 μg·mL^−1, E64 1 μg·mL^−1 and PMSF 1 mM) and ManNAc 10 mM and PEP 10 mM. […]
For the enzymatic assays, the reaction mixtures were first submitted to a purification step on C18 Seppack cartridges. […] The quantification of sugar was done by integration of peaks and determination of the corresponding molar values using response factors established with standard monosaccharides. […]

Data set [3] relates to tobacco BY2 cells. In words: In planta activity of Neu5Ac lyase: feeding transformed tobacco BY2 cells with Neu5Ac, GC of cytosolic monosaccharides. It is filed as cell-based, Nicotiana tabacum. The following applies: BY2 cells fed 10 mM Neu5Ac, 48 h.
Experimental: After 2 d, BY2 cells were washed with BY2 medium without Neu5Ac or ManNAc and harvested. The cells were heated at 70° C. for 15 min in 70% ethanol to inactivate enzymes and then ground in a potter homogenizer. The homogenate was washed two times with 70% ethanol at 70° C. The remaining pellet and the supernatant were considered as representatives of the cell walls and the cytosolic free monosaccharides respectively. Monosaccharides of the supernatant fraction were then analysed by gas chromatography
The formation of D-ManNAc was determined by analysing cytosolic monosaccharides by GC after a 48 h period at temperature ranging from 23° C. to 37° C.
The nature of data set [4]: Stability of the recombinant enzymes expressed in the plant cytosol. The conditions noted are these: tobacco BY2 cells, alfalfa plants or transient expression. The text has this: The synthesis of Neu5Ac in presence of pyruvate and ManNAc was also observed.

For `CC(=O)N[C@H]1[C@H]([C@H](O)[C@H](O)CO)OC(O)(C(=O)O)C[C@@H]1O` (stereo partly shown) [Neu5Ac, N-acetyl neuraminic acid], in data set [1], the “toxicity of Neu5Ac on tobacco BY2 cells (cell viability)” value is listed as “no toxic effects were observed”.

On to “Neu5Ac lyase: Neu5Ac lyase from Escherichia coli K1 (accession number D00067) expressed in tobacco BY2 cells”, for which the “ability to synthesise Neu5Ac” value in data set [2] is given as “able to synthesise Neu5Ac”. Further, the “increase in D-ManNAc content at 37° C. compared to 23° C.” value in data set [3] is 25 fold. Moreover, in data set [4], the “degradation of recombinant protein in the cytosol” value is listed as “No degradation”.

The values are drawn from patent US9657305B2, “Synthesis of sialic acid in plants” (Medicago, Inc., priority 2006, dated 2017).
